Assays:
[1] = test system: binding of FN to collagen type I; experiment: Solid-phase binding assay (competitive ELISA) of FN to collagen; set-up: species or system human FN; rat collagen type I; conditions: 4 nM FN incubated with peptide at 4°C overnight, then on wells coated with 10 μg/ml collagen I overnight at 37°C; anti-FN/HRP, ABTS, A405
Method: Human FN and rat collagen type I for competitive ELISA were purchased from Sigma-Aldrich (St. Louis, MO).
The FN-peptide solutions were added to collagen or BSA-coated wells, and the plates were incubated overnight at 37°C. The wells were washed and a rabbit anti-FN antibody was added for 90 minutes at room temperature. Wells were washed and then incubated with a horseradish peroxidase-conjugated secondary antibody. After washing was completed, peroxidase activity was quantified using 2,2'-azino-bis-(3-ethylbenthiazoline-6-sulfonic acid). Measurements were done at 405 nm (A405) using a SpectraMax M5 microplate reader (Molecular Device, Sunnyvale, CA).
Bound FN was detected with an anti-FN antibody followed by HRP-conjugated secondary antibody, and ABTS as described in Methods. The absorbance at 405nm was quantitated.

[2] = test system: left common carotid artery (flow-induced vascular remodeling); experiment: Morphometric analysis of carotid artery after complete common carotid ligation; format: in vivo, FVB/NJ (FVB) mice; conditions: periadventitial
Source text: (§1) Animals were anesthetized with isoflurane inhalation. The left common carotid artery was exposed, dissected free from the surrounding connective tissue and completely ligated with 6-0 silk suture just proximal to the carotid bifurcation. […] 4–10 mice were included in each experimental group.
5 groups of animals were processed for morphometric analysis. Mice were fixed with 10% formalin 7 or 14 days after the surgery. The common carotid arteries were harvested and embedded in paraffin.
(§2) For in vivo experiments, the data are shown as the mean ± SEM. For in vitro experiments, the data shown are the means ± SD of a representative experiment, at least 3 independent experiments were performed. One-way ANOVA with post-hoc testing were used for data analysis with GraphPad Prism software (GraphPad, San Diego, CA). If normality test failed, nonparametric Kruskal-Wallis test followed by Dunn's post-hoc test were used. P > 0.05 was not considered significant.

collagen type I = experiment: IHC for collagen type I in ligated carotid artery; format: in vivo, FVB/NJ (FVB) mice; conditions: 7 days after surgery; 20 μM peptide in pluronic gel; mean ± SEM; R1R2 n = 6, scrambled n = 6
Method: as §1
(§3) Paraffin sections selected from the first mm of the carotid artery in each group were used for immunohistochemistry (IHC). […] Sections were then incubated with appropriate biotinylated secondary antibodies followed by avidin-biotin immunoperoxidase system (Vector Laboratories, Burlingame, CA). Liquid DAB Substrate Chromogen system (Dako, Carpinteria, CA) was used for detection.
(§4) Quantitative IHC analysis was performed on digital images captured with a 20x objective by using Image-Pro Plus software. Data from 3–6 mice for each group were averaged, and the average values ± SEM were shown. For FN, collagen type I, SM-MHC and SM α-actin, color digital images were transformed into gray scale, and the sum of the optical densities from the intima+media area in each section was determined. […] The percent of positive cells is reported as the proliferation index. […] The intima+media region was traced manually. The percent of positively stained area in intima+media to the total traced area was assessed.
(§5) For in vivo experiments, the data are shown as the mean ± SEM. […]

collagen = experiment: Hydroxyproline assay of carotid collagen content; format: in vivo, FVB/NJ (FVB) mice; conditions: 14 days post-ligation; three carotid arteries pooled per group; colorimetric chloramine T; mean ± SEM, n = 3
Method: as §1
After reconstituting with water, samples were measured using a colorimetric chloramine T assay. Three independent experiments were performed for statistical analysis.
as §2

FN = experiment: IHC for FN in ligated carotid artery; format: in vivo, FVB/NJ (FVB) mice; conditions: mean ± SEM
Method: as §1, §3, §4, §2

[3] = test system: smooth muscle α-actin (SMAA); experiment: IHC for smooth muscle α-actin in ligated carotid artery; format: in vivo, FVB/NJ (FVB) mice; conditions: 7 days post-ligation; mean ± SEM; scrambled n = 6, R1R2 n = 5 (sham 0.232 ± 0.011, n = 5)
Method: as §1, §3, §4, §5

CD45 (+) leukocytes = experiment: CD45 IHC, leukocyte infiltration in carotid intima-media; format: in vivo, FVB/NJ (FVB) mice; conditions: 7 days after ligation; percent of positively stained area; mean ± SEM; R1R2 n = 5, scrambled n = 6
Method: as §1, §3, §4, §2

VCAM-1 = VCAM-1 IHC in ligated carotid artery; format: in vivo, FVB/NJ (FVB) mice; conditions: 7 days after ligation; percent of positively stained area; mean ± SEM; R1R2 n = 7, control peptide n = 9
Method: as §1, §3, §4, §5

ICAM-1 = ICAM-1 IHC in ligated carotid artery; format: in vivo, FVB/NJ (FVB) mice; conditions: 7 days after ligation; percent of positively stained area; mean ± SEM; R1R2 n = 7, control peptide n = 8
Method: as §1, §3, §4, §5

A7r5 SMCs [4] = experiment: A7r5 SMC growth study; format: cell-based; conditions: 48hr; 10% FBS after serum starvation and 36 hours peptide treatment; hemocytometer, trypan blue; mean ± SD, n = 5
Method: (§6) Human umbilical vein endothelial cells (HUVECs) and A7r5 SMCs were provided by Resource Center (SB3, NSC 100-2325-B-080-001), National Research Program for Biopharmaceuticals (Hsinchu, Taiwan). HUVECs were maintained in M199 (Life Technologies, Carlsbad, CA) with 25U/ml heparin (Sigma-Aldrich, St. Louis, MO), 10% fetal bovine serum (FBS) and endothelial cell growth supplement (ECGS; Millipore, Billerica, MA). A7r5 SMCs were grown in Dulbecco’s Modified Eagle’s Medium (DMEM) containing high glucose, supplemented with 10% fetal bovine serum. Human U937 cells were grown in RPMI1640 with 10% FBS.
A7r5 cells and HUVECs were growth-arrested and then stimulated with 10% FBS or 10 ng/ml TNF-αovernight after serum starvation as indicated in the figure legend. Briefly, trypan blue-excluding cells were counted with a hemocytometer, and data were analyzed using GraphPad Prism Software (San Diego, CA) as in previous studies. A second observer performed a similar analysis to verify the initial findings.
as §2
Fig 6 R1R2 reduces SMC proliferation and migration. (A) A7r5 SMC growth study over 96 hours. After serum starvation and treatment with R1R2 or scrambled peptides for 36 hours, cells were stimulated with 10% FBS over 96 hours. Cells were counted at the indicated time in the figure (n = 5). (B) A7r5 SMCs were pretreated with R1R2 or scramble peptide for 36 hours. […] (C) Quantitation of SMC migration in the scratch wound healing assay was performed by subtracting the cell-free area 30 hours after PDGF-BB stimulation from the cell-free area in the beginning (n = 5). * indicates p<0.05 and ** p< 0.01.

A7r5 SMCs [5] = experiment: SMC migration, scrape wound assay; format: cell-based; conditions: A7r5 SMCs, 36 hours peptide pretreatment, 10 ng/ml PDGF-BB, 30 hours; mean ± SD, n = 3
Method: as §6
A scrape wound assay was used to assess the effect of R1R2 and scrambled peptides on SMC migration as described. Briefly, A7r5 SMCs were grown until 90% confluent, followed by serum starvation and treatment with R1R2 and scrambled peptides for 36 hours. Several scrape wounds were then performed across the dish with a sterile yellow pipet tip. We initiated the experiment with treatment of cells with 10 ng/ml PDGF-BB. Photographs of the wound area were taken immediately after PDGF-BB addition (0 hour) and 30 hours postwounding with an Olympus CKX-41 microscope connected to a camera. At least three photographs were taken per group at each time point. Wound areas were determined using Image-Pro Software (Media Cybernetics, MD). Measurement of migration was determined by subtracting the cell-free area 30 hours after PDGF-BB addition from the cell-free area in the beginning of scrape wounds.
For in vivo experiments, the data are shown as the mean ± SEM. For in vitro experiments, the data shown are the means ± SD of a representative experiment, at least 3 independent experiments were performed. […]
Fig 6 R1R2 reduces SMC proliferation and migration. […] Cells were counted at the indicated time in the figure (n = 5). […] (C) Quantitation of SMC migration in the scratch wound healing assay was performed by subtracting the cell-free area 30 hours after PDGF-BB stimulation from the cell-free area in the beginning (n = 5). * indicates p<0.05 and ** p< 0.01.

U937 cells / HUVECs [6] = experiment: Monocyte U937 adhesion to HUVECs; format: cell-based, human; conditions: HUVECs treated with 10 ng/ml TNF-α; calcein-AM U937 5x10^5 cells/well, 30 minutes at 37°C; fluorescence 485/535; mean ± SD
Method: as §2

U937 cells / HUVECs [7] = experiment: Monocyte U937 transendothelial migration assay; format: cell-based, human; conditions: HUVECs on 5um transwells, 10 ng/ml TNF-α; U937 1.5x10^5 cells/transwell, 1.5 hours at 37°C; fluorescence 485/535; mean ± SD
Method: as §2

[8] = 7 day after ligation, 20 μM peptide in 50 μl F-127 pluronic gel, mean ± SEM, scrambled n = 4, R1R2 n = 10
[9] = 14 day after ligation, 20 μM peptide in 50 μl F-127 pluronic gel, mean ± SEM, scrambled n = 4, R1R2 n = 9

**Q.** How did the “effect on FN-collagen type I binding” value [1] turn out when “PGPGAEQPEQSKERNSQERGNGLALPGEELEGQEGGNKPSGENNGPPQGNLRGPLEG [scrambled peptide, reference compound]” was run?
**A.** had no effect on FN-collagen binding

**Q.** And the “effect on neointimal formation” value ([2]; 7 and 14 days post-ligation, 20 μM peptide in pluronic gel, in words)?
**A.** have no effect on neointimal formation

**Q.** What about the “EEL Area” value [2, 8] of the same sequence?
**A.** 91403 ± 3805 (n = 4) μm^2

**Q.** What about the Lumen [2, 8] of the same sequence?
**A.** 44901 ± 4552 (n = 4) μm^2

**Q.** And the “EEL Area” value [2, 9]?
**A.** 92240 ± 13572 (n = 4) μm^2

**Q.** What about the “Intima+Media” value [2, 9] of the same sequence?
**A.** 65441 ± 11973 (n = 4) μm^2

**Q.** And the Lumen [2, 9]?
**A.** 37551 ± 11976 (n = 4) μm^2

**Q.** What about the “collagen type I IHC intensity in intima-media area” value (collagen type I) of the same sequence?
**A.** 0.198 ± 0.007

**Q.** And the “collagen content, hydroxyproline assay” value (collagen)?
**A.** 2.133 ± 0.284

**Q.** And the “FN IHC intensity in intima-media area” value (FN; 7 days after ligation, R1R2 n = 6, scrambled n = 6)?
**A.** 0.144 ± 0.005

**Q.** What about the “FN IHC intensity in intima-media area” value (FN; 14 days after ligation, R1R2 n = 7, scrambled n = 7) of the same sequence?
**A.** 0.338 ± 0.016

**Q.** And the “SMAA IHC staining in intima-media area” value [3]?
**A.** 0.176 ± 0.004

**Q.** What about the “CD45 (+) area in intima-media” value (CD45 (+) leukocytes) of the same sequence?
**A.** 0.441 ± 0.049%

**Q.** And the “VCAM-1 (+) area in intima-media” value (VCAM-1)?
**A.** 25.72 ± 1.966%

**Q.** And the “ICAM-1 (+) area in intima-media” value (ICAM-1)?
**A.** 30.39 ± 3.016%

**Q.** And the “A7r5 SMC growth, cell number” value (A7r5 SMCs [4])?
**A.** 2.740 ± 0.688 x 10^5

**Q.** What about the “SMC migration (cell-free area at 0 h minus cell-free area at 30 hours)” value (A7r5 SMCs [5]) of the same sequence?
**A.** 313537 ± 66925

**Q.** What about the “U937 adhesion to HUVECs” value (U937 cells / HUVECs [6]) of the same sequence?
**A.** 259093 ± 14720 cells per cm^2

**Q.** And the U937 transendothelial migration (U937 cells / HUVECs [7])?
**A.** 110055 ± 42517 cells per well

Source: paper PMC4326127, “Collagen Inhibitory Peptide R1R2 Mediates Vascular Remodeling by Decreasing Inflammation and Smooth Muscle Cell Activation” (PLoS ONE, 2015)
